{"source": "paper PMC10982501", "about": "“Synthesis and biological evaluation of novel benzothiazole derivatives as potential anticancer and antiinflammatory agents” (Frontiers in Chemistry, 2024)"}
{"tested_on": "not listed separately", "test": "Oil-water partition coefficient (log P) measurement", "assay_type": "physicochemical", "conditions": "n-octanol/water, room temperature", "procedure": "The partition coefficient between n-octanol and water (log Po/w) is the classical descriptor for Lipophilicity ([Daina et al., 2017]). The test methodology followed previously published protocols ([Wang et al., 2021]). At room temperature, two large Erlenmeyer flasks were taken and filled with n-octanol and water, respectively. The flasks were placed in a constant temperature shaker at 150 rpm for 24 h to saturate the solvents. The mixtures were then transferred to separating funnels under normal pressure to obtain water-saturated n-octanol and n-octanol-saturated water for subsequent use. The target compound (2 mg) was accurately weighed and placed in a 2 mL brown volumetric flask. Anhydrous methanol was added to ultrasonically dissolve the compound, and the mixture was diluted to volume and thoroughly shaken to prepare a 1 mg/mL stock solution. The stock solution was further diluted to obtain 1, 1.5, 2, 2.5, 5 and 10 μg/mL reference solutions for construction of a standard curve using a UV-visible spectrophotometer. An excess amount of the analyte was dissolved in water-saturated n-octanol, and the mixture was shaken at 150 rpm for 24 h at constant temperature to obtain a saturated solution. The saturated solution was allowed to stand, centrifuged, and 1 mL of the supernatant was transferred to a 4 mL centrifuge tube. N-octanol saturated water (1 mL) was added, and the mixture was shaken at 150 rpm for 24 h at constant temperature. After standing for 8 h, the mixture was centrifuged. Appropriate amounts of the n-octanol phase before and after equilibration were diluted with methanol, and concentrations were determined from the standard curve to obtain C0 and C1. The concentration in the n-octanol saturated aqueous phase, Cw, was calculated as Cw = C0 - C1. Thus, log Po/w = […]."}
{"smiles": "Fc1cccc(CNc2nc3ccc(Cl)cc3s2)c1", "note": "[B5, 6-chloro-N-(3-fluorobenzyl)benzo[d]thiazol-2-amine]", "logP": "3.58 ± 0.11"}
{"smiles": "COc1cc(CNc2nc3ccc(Cl)cc3s2)cc(OC)c1", "note": "[B6, 6-chloro-N-(3,5-dimethoxybenzyl)benzo[d]thiazol-2-amine]", "logP": "3.36 ± 0.18"}
{"smiles": "Clc1ccc2nc(NCc3ccccc3)sc2c1", "note": "[B8, N-benzyl-6-chlorobenzo[d]thiazol-2-amine]", "logP": "3.56 ± 0.16"}
{"smiles": "O=C(Nc1nc2ccc(F)cc2s1)c1ccccc1", "note": "[C1, N-(6-fluorobenzo[d]thiazol-2-yl)benzamide]", "logP": "2.56 ± 0.14"}
{"smiles": "O=C(Nc1nc2ccc(F)cc2s1)c1c(Cl)cccc1Cl", "note": "[C2, 2,6-dichloro-N-(6-fluorobenzo[d]thiazol-2-yl) benzamide]", "log P": "2.93 ± 0.11"}
{"tested_on": "A431 cells", "test": "MTT cell proliferation assay, A431", "assay_type": "cell-based, human", "conditions": "10 μM, 48 h", "procedure": "(§1) Beas-2b, A431, A549 and H1299 cells were cultured in 96-well plates (5 × 10^3 cells/well) for 16 h, respectively. Subsequently, positive compound 4i and 25 newly synthesized compounds were added at a final concentration of 10 μM or gradient concentrations (0.01, 0.1, 0.5, 1, 5 and 10 μM), co-incubated with the cells for 48 h. MTT (M8180, Solarbio) solutions (5 mg/mL) were then added and incubated for 4 h in the dark. Then, formazan crystals were dissolved with DMSO (D8371, Solarbio), followed by shaking on a shaker (DRAGONLAB, China) for 10 min. Finally, absorbance at 490 nm wavelength for each well was measured with Microplate reader (Molecular Devices, United States) ([Tang et al., 2020]; [Lee et al., 2021]). The results are expressed as mean ± SD from three independent experiments. Cells inhibition rates or IC50 values were calculated using GraphPad Prism 9.5.0.", "units": {"A431 cells inhibition rate": "%"}}
{"smiles": "Fc1cccc(CNc2nc3ccc(Cl)cc3s2)c1", "note": "[B5, 6-chloro-N-(3-fluorobenzyl)benzo[d]thiazol-2-amine]", "A431 cells inhibition rate": "59.69 ± 3.62"}
{"smiles": "Clc1ccc2nc(NCc3ccccc3)sc2c1", "note": "[B8, N-benzyl-6-chlorobenzo[d]thiazol-2-amine]", "A431 cells inhibition rate": "57.43 ± 3.64"}
{"smiles": "O=C(Nc1nc2ccc(F)cc2s1)c1c(Cl)cccc1Cl", "note": "[C2, 2,6-dichloro-N-(6-fluorobenzo[d]thiazol-2-yl) benzamide]", "A431 cells inhibition rate": "5.61 ± 0.26"}
{"tested_on": "A431 cells", "test": "MTT cell proliferation assay, A431", "assay_type": "cell-based, human", "conditions": "Homo sapiens, A-431, 48 h, 10 μM, read-out: A431 cells inhibition rate", "procedure": "as §1", "units": {"inhibition at 10 µM": "%"}}
{"smiles": "Fc1cccc(CNc2nc3ccc(Cl)cc3s2)c1", "note": "[B5, 6-chloro-N-(3-fluorobenzyl)benzo[d]thiazol-2-amine]", "inhibition at 10 µM": "> 50"}
{"smiles": "COc1cc(CNc2nc3ccc(Cl)cc3s2)cc(OC)c1", "note": "[B6, 6-chloro-N-(3,5-dimethoxybenzyl)benzo[d]thiazol-2-amine]", "inhibition at 10 µM": "43.4 ± 1.61"}
{"smiles": "Clc1ccc2nc(NCc3ccccc3)sc2c1", "note": "[B8, N-benzyl-6-chlorobenzo[d]thiazol-2-amine]", "inhibition at 10 µM": "> 50"}
{"smiles": "O=C(Nc1nc2ccc(F)cc2s1)c1ccccc1", "note": "[C1, N-(6-fluorobenzo[d]thiazol-2-yl)benzamide]", "inhibition at 10 µM": "17.5 ± 1.35"}
{"tested_on": "A431 cells", "test": "MTT cell proliferation assay, A431", "assay_type": "cell-based, human", "conditions": "Homo sapiens, A-431, 48 h, read-out: IC50 (mean ± SD) A431", "procedure": "as §1", "units": {"IC50": "µM"}}
{"smiles": "Fc1cccc(CNc2nc3ccc(Cl)cc3s2)c1", "note": "[B5, 6-chloro-N-(3-fluorobenzyl)benzo[d]thiazol-2-amine]", "IC50": "10.8 ± 0.56"}
{"smiles": "Clc1ccc2nc(NCc3ccccc3)sc2c1", "note": "[B8, N-benzyl-6-chlorobenzo[d]thiazol-2-amine]", "IC50": "5.36 ± 1"}
{"tested_on": "A549 cells", "test": "MTT cell proliferation assay, A549", "assay_type": "cell-based, human", "conditions": "10 μM, 48 h", "procedure": "as §1", "units": {"A549 cells inhibition rate": "%"}}
{"smiles": "Fc1cccc(CNc2nc3ccc(Cl)cc3s2)c1", "note": "[B5, 6-chloro-N-(3-fluorobenzyl)benzo[d]thiazol-2-amine]", "A549 cells inhibition rate": "58.64 ± 1.01"}
{"smiles": "Clc1ccc2nc(NCc3ccccc3)sc2c1", "note": "[B8, N-benzyl-6-chlorobenzo[d]thiazol-2-amine]", "A549 cells inhibition rate": "65.75 ± 0.96"}
{"smiles": "O=C(Nc1nc2ccc(F)cc2s1)c1c(Cl)cccc1Cl", "note": "[C2, 2,6-dichloro-N-(6-fluorobenzo[d]thiazol-2-yl) benzamide]", "A549 cells inhibition rate": "0.27 ± 0.12"}
{"tested_on": "A549 cells", "test": "MTT cell proliferation assay, A549", "assay_type": "cell-based, human", "conditions": "Homo sapiens, A549, 48 h, 10 μM, read-out: A549 cells inhibition rate", "procedure": "as §1", "units": {"inhibition at 10 µM": "%"}}
{"smiles": "Fc1cccc(CNc2nc3ccc(Cl)cc3s2)c1", "note": "[B5, 6-chloro-N-(3-fluorobenzyl)benzo[d]thiazol-2-amine]", "inhibition at 10 µM": "> 50"}
{"smiles": "COc1cc(CNc2nc3ccc(Cl)cc3s2)cc(OC)c1", "note": "[B6, 6-chloro-N-(3,5-dimethoxybenzyl)benzo[d]thiazol-2-amine]", "inhibition at 10 µM": "35.2 ± 2.86"}
{"smiles": "Clc1ccc2nc(NCc3ccccc3)sc2c1", "note": "[B8, N-benzyl-6-chlorobenzo[d]thiazol-2-amine]", "inhibition at 10 µM": "> 50"}
{"smiles": "O=C(Nc1nc2ccc(F)cc2s1)c1ccccc1", "note": "[C1, N-(6-fluorobenzo[d]thiazol-2-yl)benzamide]", "inhibition at 10 µM": "19.3 ± 1.07"}
{"tested_on": "A549 cells", "test": "MTT cell proliferation assay, A549", "assay_type": "cell-based, human", "conditions": "Homo sapiens, A549, 48 h, read-out: IC50 (mean ± SD) A549", "procedure": "as §1", "units": {"IC50": "µM"}}
{"smiles": "Fc1cccc(CNc2nc3ccc(Cl)cc3s2)c1", "note": "[B5, 6-chloro-N-(3-fluorobenzyl)benzo[d]thiazol-2-amine]", "IC50": "5.44 ± 1"}
{"smiles": "Clc1ccc2nc(NCc3ccccc3)sc2c1", "note": "[B8, N-benzyl-6-chlorobenzo[d]thiazol-2-amine]", "IC50": "6.25 ± 0.99"}
{"tested_on": "H1299 cells", "test": "MTT cell proliferation assay, H1299", "assay_type": "cell-based, human", "conditions": "10 μM, 48 h", "procedure": "as §1", "units": {"H1299 cells inhibition rate": "%"}}
{"smiles": "Fc1cccc(CNc2nc3ccc(Cl)cc3s2)c1", "note": "[B5, 6-chloro-N-(3-fluorobenzyl)benzo[d]thiazol-2-amine]", "H1299 cells inhibition rate": "51.34 ± 3.03"}
{"smiles": "Clc1ccc2nc(NCc3ccccc3)sc2c1", "note": "[B8, N-benzyl-6-chlorobenzo[d]thiazol-2-amine]", "H1299 cells inhibition rate": "55.22 ± 2.49"}
{"smiles": "O=C(Nc1nc2ccc(F)cc2s1)c1c(Cl)cccc1Cl", "note": "[C2, 2,6-dichloro-N-(6-fluorobenzo[d]thiazol-2-yl) benzamide]", "H1299 cells inhibition rate": "6.80 ± 0.22"}
{"tested_on": "H1299 cells", "test": "MTT cell proliferation assay, H1299", "assay_type": "cell-based, human", "conditions": "Homo sapiens, NCI-H1299, 48 h, 10 μM, read-out: H1299 cells inhibition rate", "procedure": "as §1", "units": {"inhibition at 10 µM": "%"}}
{"smiles": "Fc1cccc(CNc2nc3ccc(Cl)cc3s2)c1", "note": "[B5, 6-chloro-N-(3-fluorobenzyl)benzo[d]thiazol-2-amine]", "inhibition at 10 µM": "> 50"}
{"smiles": "COc1cc(CNc2nc3ccc(Cl)cc3s2)cc(OC)c1", "note": "[B6, 6-chloro-N-(3,5-dimethoxybenzyl)benzo[d]thiazol-2-amine]", "inhibition at 10 µM": "32.8 ± 0.74"}
{"smiles": "Clc1ccc2nc(NCc3ccccc3)sc2c1", "note": "[B8, N-benzyl-6-chlorobenzo[d]thiazol-2-amine]", "inhibition at 10 µM": "> 50"}
{"smiles": "O=C(Nc1nc2ccc(F)cc2s1)c1ccccc1", "note": "[C1, N-(6-fluorobenzo[d]thiazol-2-yl)benzamide]", "inhibition at 10 µM": "28.3 ± 1.25"}
{"tested_on": "H1299 cells", "test": "MTT cell proliferation assay, H1299", "assay_type": "cell-based, human", "conditions": "Homo sapiens, NCI-H1299, 48 h, read-out: IC50 (mean ± SD) H1299", "procedure": "as §1", "units": {"IC50": "µM"}}
{"smiles": "Fc1cccc(CNc2nc3ccc(Cl)cc3s2)c1", "note": "[B5, 6-chloro-N-(3-fluorobenzyl)benzo[d]thiazol-2-amine]", "IC50": "9.26 ± 1.34"}
{"smiles": "Clc1ccc2nc(NCc3ccccc3)sc2c1", "note": "[B8, N-benzyl-6-chlorobenzo[d]thiazol-2-amine]", "IC50": "6.69 ± 0.54"}
{"tested_on": "Beas-2b cells", "test": "MTT cell proliferation and toxicity assay, Beas-2b", "assay_type": "cell-based, human", "conditions": "10 μM, 48 h", "procedure": "as §1", "units": {"Beas-2b cells inhibition rate": "%"}}
{"smiles": "O=C(Nc1nc2ccc(F)cc2s1)c1c(Cl)cccc1Cl", "note": "[C2, 2,6-dichloro-N-(6-fluorobenzo[d]thiazol-2-yl) benzamide]", "Beas-2b cells inhibition rate": "12.82 ± 1.76"}
{"tested_on": "Beas-2b cells", "test": "MTT cell proliferation and toxicity assay, Beas-2b", "assay_type": "cell-based, human", "conditions": "Homo sapiens, BEAS-2B, 48 h, read-out: Beas-2b cells inhibition rate", "procedure": "as §1", "units": {"inhibition at 10 µM": "%"}}
{"smiles": "Fc1cccc(CNc2nc3ccc(Cl)cc3s2)c1", "note": "[B5, 6-chloro-N-(3-fluorobenzyl)benzo[d]thiazol-2-amine]", "inhibition at 10 µM": "20.6 ± 1.85"}
{"smiles": "COc1cc(CNc2nc3ccc(Cl)cc3s2)cc(OC)c1", "note": "[B6, 6-chloro-N-(3,5-dimethoxybenzyl)benzo[d]thiazol-2-amine]", "inhibition at 10 µM": "20.6 ± 1.32"}
{"smiles": "Clc1ccc2nc(NCc3ccccc3)sc2c1", "note": "[B8, N-benzyl-6-chlorobenzo[d]thiazol-2-amine]", "inhibition at 10 µM": "18.1 ± 3.22"}
{"smiles": "O=C(Nc1nc2ccc(F)cc2s1)c1ccccc1", "note": "[C1, N-(6-fluorobenzo[d]thiazol-2-yl)benzamide]", "inhibition at 10 µM": "16.3 ± 1.82"}
